Data on two compounds can be found in patent US6846844B2, “Compounds and compositions for delivering active agents” (Emisphere Technologies, Inc., priority 2000, dated 2005).

Series [1] can be described thus: Intracolonic delivery of heparin with delivery agent compound, activated partial thromboplastin time (APTT). The following applies: rats, intracolonic (IC); compound dose 50 mg/kg, heparin dose 25 mg/kg, volume dose 1 ml/kg; five rats; baseline about 20 sec. It is filed as in vivo, Sprague-Dawley rats. Here is the method:
Intracolonic (IC) dosing solutions containing a delivery agent compound and heparin sodium USP in 25% aqueous propylene glycol were prepared. Either the sodium salt of the delivery agent compound was used or the free acid was converted to the sodium salt with one equivalent of sodium hydroxide. Typically, the delivery agent compound and heparin (about 166-182 IU/mg) were mixed by vortex as dry powders. This dry mixture was dissolved in 25% v/v aqueous propylene glycol, vortexed and placed in a sonicator (about 37° C.). The pH was adjusted to about 7 (6.5 to 8.5) with aqueous NaOH (2N). The dosing solution was sonicated to produce a clear solution. The final volume was adjusted to 3.0 mL. The final delivery agent compound dose, heparin dose and volume dose amounts are listed below in Table 2.
The typical dosing and sampling protocols were as follows. […]
Citrated blood samples were collected by cardiac puncture following the administration of ketamine (88 mg/kg), typically at time=0.25, 0.5, 1.0 and 1.5 hours. Heparin activity was determined by utilizing the activated partial thromboplastin time (APTT) according to the method of Henry, J. B., Clinical Diagnosis and Management by Laboratory Methods, Philadelphia, Pa., W. B. Saunders (1979). […]

In general, melting point refers to the temperature of the solid-liquid transition. In the case of `Cc1c(Cl)cc(NC(=O)CC(C)CC(=O)O)c(O)c1Cl` (stereo not drawn) [Compound 1, 3R-5-[(3,5-dichloro-2-hydroxy-4-methylphenyl)amino]-3-methyl-5-oxopentanoic acid], the melting point is 171 to 173 °C. For the same compound, the “Mean Peak APTT (sec) ± SD” value in series [1] stood at 205.8 ± 32.4 s. With `Cc1ccc(NC(=O)C[C@@H](C)CC(=O)O)c(O)c1` [Compound 2, (3R)-5-[(2-hydroxy-4-methylphenyl)amino]-3-methyl-5-oxo-pentanoic acid], the melting point is 117 to 118 °C.
